Literature values in patent publication US20100240626A1, “ANTIEMETIC-ORAL CONTRACEPTIVE COMBINATION” (Lupin Limited, priority 2007, published 2010).

Settings: 0.75 mg of levonorgestrel administered

patients experiencing nausea: about 23.1%
patients experiencing vomiting: 5.6%
SMILES: C#C[C@]1(O)CC[C@H]2[C@@H]3CCC4=CC(=O)CC[C@@H]4[C@H]3CC[C@@]21CC [levonorgestrel]
